# Reference: patent US12285428B2 (IMBRIA PHARMACEUTICALS, INC., priority 2021, dated 2025)
# How the values were obtained:
# [1] = FIH study, all parts combined: plasma PK; format: in vivo, human; details: all blood samples of subjects that received IMB-1018972
# Excerpt: The study started with the SAD part.
# healthy subjects = assay: FIH study, single-dose MR part: safety and tolerability; format: in vivo, human; details: for ALT, Subject 505: normal range 0-68 IU/L
# Procedure: The subjects received a single oral dose of 1 of 4 MR formulations of IMB-1018972 under fasted conditions (an overnight fast of at least 10 hours) on Days 1, 4, 7, and 10 in a fixed order that was the same for all subjects. The MR formulation of IMB-1018972 to be administered on Day 13 under fed conditions was 1 of the 4 MR formulations administered on Days 1, 4, 7, and 10 under fasted conditions. The formulation chosen for administration on Day 13 was the 200 mg 8-hour MR formulation as determined by the Sponsor based on the available safety, tolerability, and PK results of the 4 MR formulations.
# AEs were recorded from (first) admission until completion of the follow-up visit. Any clinically significant observations in results of clinical laboratory, 12-lead ECGs, vital signs, or physical examinations were recorded as AEs.
# A treatment-emergent AE (TEAE) was defined as any event not present prior to (the first) administration of the study drug or any event already present that worsened in either severity or frequency following exposure to the study drug.
# At several time points before and after drug administration, subjects were asked nonleading questions to determine the occurrence of AEs. Subjects were asked in general terms about any AEs at regular intervals during the study. In addition, all AEs reported spontaneously during the course of the study were recorded. Details included description of the event, date and time of onset, date and time of end, total duration, severity, relationship to study drug, intervention, seriousness, and outcome. All answers were interpreted by the Investigator and were recorded in the eCRF. All AEs were classified according to the Medical Dictionary for Regulatory Activities (MedDRA; Version 22.0) for AEs.
# The severity of the AEs was rated as mild, moderate, or severe; the relationship between the AEs and the study drug was indicated as none, unlikely, possibly, likely, or definitely. Adverse events assessed as possibly, likely, or definitely were considered related to the study drug; AEs assessed as none or unlikely were considered not related to the study drug.
# The following parameters were measured: • Clinical chemistry (serum quantitatively): total bilirubin, alkaline phosphatase, gamma glutamyl transferase, aspartate aminotransferase (AST), alanine aminotransferase (ALT), lactate dehydrogenase, creatinine, urea, total protein, glucose, inorganic phosphate, sodium, potassium, • calcium, and chloride • Hematology (blood quantitatively): leukocytes, erythrocytes, hemoglobin, hematocrit, thrombocytes, partial automated differentiation (lymphocytes, monocytes, eosinophils, basophils, and neutrophils), mean corpuscular volume, mean corpuscular hemoglobin, and mean corpuscular hemoglobin concentration • Coagulation (blood quantitatively): prothrombin time (reported in seconds and as international normalized ratio), activated partial thromboplastin time, and fibrinogen • Urinalysis (urine qualitatively): hemoglobin, urobilinogen, ketones, glucose, and protein • Serology: HBsAg, anti-HCV, and anti-HIV 1 and 2 • Drug and alcohol screen: opiates, methadone, cocaine, amphetamines (including ecstasy), cannabinoids, barbiturates, benzodiazepines, tricyclic antidepressants, and alcohol • Pregnancy test (females only): (3-human chorionic gonadotropin in serum
# [2] = 50 mg 4-hour MR formulation of IMB-1018972, fasted
# [3] = 200 mg 4-hour MR formulation of IMB-1018972, fasted
# [4] = single doses of 50 mg or 200 mg MR IMB-1018972 (N=12)
# [5] = single-dose MR part, IMB-1018972 (N=12)
# [6] = single-dose MR part, of 37 TEAEs
smiles,measurement,setting,value
"COc1ccc(CN2CCN(CCOC(=O)c3cccnc3)CC2)c(OC)c1OC [IMB-1018972, 2-[4-[(2,3,4-trimethoxyphenyl)methyl]piperazin-1-yl]ethyl pyridine-3-carboxylate]",IMB-1018972 in plasma,[1],could be measured in only few plasma samples
same,Number of TEAEs,healthy subjects; [2],9
same,Subjects reporting TEAEs,healthy subjects; [2],50%
same,Tolerability,"healthy subjects; 50 mg and 200 mg MR formulations (4-hour, 8-hour) fasted, 200 mg 8-hour MR fed, except 1 subject with elevated ALT",well tolerated
same,Number of TEAEs,healthy subjects; [3],11
same,Subjects reporting TEAEs,healthy subjects; [3],66.7%
same,"ALT, Subject 505","healthy subjects; Day 2, MR doses on Days 1, 4, 7, 10",31 IU/L
same,"ALT, Subject 505",healthy subjects; Day 5,72 IU/L
same,"ALT, Subject 505",healthy subjects; Day 8,97 IU/L
same,"ALT, Subject 505",healthy subjects; Day 11 (highest),149 IU/L
same,"ALT, Subject 505",healthy subjects; Day 14,102 IU/L
same,"ALT, Subject 505",healthy subjects; Day 16,84 IU/L
same,"ALT, Subject 505",healthy subjects; follow-up Day 24,42 IU/L
same,Number of drug-related TEAEs (events) of pollakiuria (renal and urinary disorders),healthy subjects; [4],5
same,Subjects reporting pollakiuria,healthy subjects; [4],16.7%
same,Dose or dissolution time dependency of number and incidence of TEAEs,healthy subjects; single-dose MR part,no apparent dose or dissolution time dependency
same,"Moderate TEAE of ALT increased (1 subject, withdrawn): relationship to the study drug (Investigator)",healthy subjects; single-dose MR part,possibly related
same,Number of drug-related TEAEs of ALT increased,healthy subjects; single-dose MR part,1
same,Number of drug-related TEAEs of headache,healthy subjects; single-dose MR part,1
same,Severe TEAEs,healthy subjects; single-dose MR part,No severe TEAEs
same,TEAEs of flushing,healthy subjects; single-dose MR part,No TEAEs of flushing
same,Number of TEAEs considered not related to the study drug,healthy subjects; single-dose MR part (N=12),30
same,Number of TEAEs considered related to the study drug,healthy subjects; single-dose MR part (N=12),7
same,"Number of TEAEs, SOC gastrointestinal disorders",healthy subjects; single-dose MR part (N=12),5
same,"Number of TEAEs, SOC general disorders and administration site conditions",healthy subjects; single-dose MR part (N=12),11
same,"Number of TEAEs, SOC nervous system disorders",healthy subjects; single-dose MR part (N=12),8
same,Subjects reporting TEAEs considered not related to the study drug,healthy subjects; single-dose MR part (N=12),83.3%
same,Subjects reporting TEAEs considered related to the study drug,healthy subjects; single-dose MR part (N=12),33.3%
same,"Subjects reporting TEAEs, SOC gastrointestinal disorders",healthy subjects; single-dose MR part (N=12),33.3%
same,"Subjects reporting TEAEs, SOC general disorders and administration site conditions",healthy subjects; single-dose MR part (N=12),58.3%
same,"Subjects reporting TEAEs, SOC nervous system disorders",healthy subjects; single-dose MR part (N=12),58.3%
same,Difference between fasted and fed administration for number and incidence of TEAEs,"healthy subjects; single-dose MR part, 200 mg 8-hour MR",no clear difference
same,Number of TEAEs,healthy subjects; [5],37
same,Subjects reporting TEAEs,healthy subjects; [5],83.3%
same,Number of TEAEs of mild severity,healthy subjects; [6],Thirty-six
same,Number of TEAEs of moderate severity,healthy subjects; [6],1
same,"AST levels, Subject 505",healthy subjects; throughout the entire period,within normal range
